Test results: patent publication US12018021B2 (UCB Biopharma SRL, priority 2018, dated 2024)

What follows are molecules tested against IgE-Tb / sFcεRIα-Y131A-AF488 (Homo sapiens, UniProt P01854, N146Q/N252Q) (assay: IgE-Tb / sFcεRIα-Y131A-AF488 FRET assay (protocol for examples 234 to 501)). Conditions: examples 234 to 501: compound with IgE-Tb 30 minutes before sFcεRIα-Y131A-AF488, incubated 18 hours at room temperature; read-out: Y131A FRET IC50 range.
Assay type: binding
Method: For examples 234 to 501, the assay was conducted according to the following: Each assay reaction was conducted in a volume of 25 μl in a 384-well half-volume plate. 10 point compound serial dilutions (3-fold) were generated in DMSO at a concentration of ×50 that of the final assay concentration (FAC). Compound solutions were then prepared by diluting 10-fold in assay buffer. For the assay, 5l of diluted compound was added to 10 μl of IgE-Tb and incubated for 30 minutes before the addition of 10 μ[…]. FRET reagents FACs were 5 nM IgE-Tb, 25 nM […]. Usually the top FAC of compound in the assay was 10 μM. The final DMSO concentration was 2%. […] The maximum FRET signal (MAX) was measured in wells containing FRET reagents but no compound. The assay was incubated for 18 hours at room temperature, protected from light and evaporation, and with gentle agitation. Measurement of FRET for each well was carried out by exciting at 337 nm and measuring emission at 490/520 nm using a PHERAstar FSX plate reader (BMG Labtech). FRET ratio was calculated as follows: Emission at 520/7Emission at 490×1000. The FRET ratio was used for the data analysis. […] Z' above 0.5 was considered a good assay. Background signal (MIN) was subtracted from all wells. […] Percent inhibition was plotted against compound concentration. IC50 values for each compound were determined using four parameter logistic fit model using the XLFIT5 software package.

IgE-Tb / sFcεRIα-Y131A-AF488, sequence (P01854 whole entry N146Q/N252Q): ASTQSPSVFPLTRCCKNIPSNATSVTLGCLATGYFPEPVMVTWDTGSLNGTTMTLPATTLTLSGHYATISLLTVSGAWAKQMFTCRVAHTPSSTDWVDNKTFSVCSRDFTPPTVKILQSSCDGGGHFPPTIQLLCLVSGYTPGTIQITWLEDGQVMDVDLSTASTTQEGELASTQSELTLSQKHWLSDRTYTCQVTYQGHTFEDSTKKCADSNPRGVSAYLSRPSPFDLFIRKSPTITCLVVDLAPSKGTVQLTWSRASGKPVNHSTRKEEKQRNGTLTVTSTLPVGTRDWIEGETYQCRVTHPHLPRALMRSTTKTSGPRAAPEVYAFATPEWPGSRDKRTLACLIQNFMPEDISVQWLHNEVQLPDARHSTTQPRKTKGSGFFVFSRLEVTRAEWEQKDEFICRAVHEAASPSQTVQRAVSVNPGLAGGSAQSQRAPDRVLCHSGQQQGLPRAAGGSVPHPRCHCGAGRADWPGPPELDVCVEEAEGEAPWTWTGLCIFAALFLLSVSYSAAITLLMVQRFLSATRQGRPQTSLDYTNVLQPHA

Compound | IC50 [nM]
CC1CC1C(=O)Nc1sc2c(c1C(=O)NCC1CC1)C[C@@H](n1cnnc1Nc1cc(C(F)F)nn1C)CC2 (mixture of isomers) [Example 369, (5S)—N-(cyclopropylmethyl)-5-[3-[[5-(difluoromethyl)-2-methylpyrazol-3-yl]amino]-1,2,4-triazol-4-yl]-2-[(2-methylcyclopropanecarbonyl)amino]-4,5,6,7-tetrahydro-1-benzothiophene-3-carboxamide] | < 1000
O=C(NCC1CC1)c1c(NC(=O)C2CC2)sc2c1C[C@@H](n1cnnc1N[C@H]1CCN(c3ccc(F)nn3)C1)CC2 [Example 245, (5S)-2-(cyclopropanecarbonylamino)-N-(cyclopropylmethyl)-5-[3-[[(3S)-1-(6-fluoropyridazin-3-yl)pyrrolidin-3-yl]amino]-1,2,4-triazol-4-yl]-4,5,6,7-tetrahydrobenzothiophene-3-carboxamide] | < 1000
CC(=O)N1CC[C@](C)(Nc2nncn2[C@H]2CCc3sc(NC(=O)C4CC4)c(C(=O)NCC4CC4)c3C2)C1 (single isomer, unassigned) [Example 239, (5S)-5-[3-[[(3*)-1-acetyl-3-methyl-pyrrolidin-3-yl]amino]-1,2,4-triazol-4-yl]-2-(cyclopropanecarbonylamino)-N-(cyclopropylmethyl)-4,5,6,7-tetrahydrobenzothiophene-3-carboxamide] | < 1000
CCOC(=O)c1c(NC(=O)C2CC23CC3)sc2c1C[C@@H](n1cnnc1Nc1cc(C(F)F)nn1C)CC2 (mixture of isomers) [Example 417a, Ethyl (5S)-5-[3-[[5-(difluoromethyl)-2-methyl-pyrazol-3-yl]amino]-1,2,4-triazol-4-yl]-2-(spiro[2.2]pentane-2-carbonylamino)-4,5,6,7-tetrahydrobenzothiophene-3-carboxylate] | < 1000
Cn1nc(OC(F)F)cc1Nc1nncn1[C@H]1CCc2sc(NC(=O)[C@H]3C[C@H](F)C3)c(C(=O)N[C@@H]3CC34CC4)c2C1 (single isomer, unassigned) [Example 484] | < 1000
Cn1nc(OC(F)F)cc1Nc1nncn1[C@H]1CCc2sc(NC(=O)C3CC3)c(C(=O)NC[C@H]3CC3(F)F)c2C1 (single isomer, unassigned) [Example 459] | < 1000
Cn1nc(OC(F)F)cc1Nc1nncn1[C@H]1CCc2sc(NC(=O)[C@H]3C[C@@H]3F)c(C(=O)NC[C@@H]3C[C@@H]3F)c2C1 [Example 322, (5S)-5-[3-[[5-(difluoromethoxy)-2-methylpyrazol-3-yl]amino]-1,2,4-triazol-4-yl]-2-[[(1R,2S)-2-fluorocyclopropanecarbonyl]amino]-N-[[(1S,2S)-2-fluorocyclopropyl]methyl]-4,5,6,7-tetrahydro-1-benzothiophene-3-carboxamide] | < 1000
Cc1c(Nc2nncn2[C@H]2CCc3sc(NC(=O)C4CC4)c(C(=O)NCC4CC4)c3C2)cccc1[S@@](C)(=N)=O (single isomer, unassigned) [Example 236] | < 1000
Cn1nc(C(F)F)cc1Nc1nncn1[C@H]1CCc2sc(NC(=O)C3CC3)c(C(=O)NC[C@H]3C[C@H](F)C3)c2C1 (racemic) [Example 497, (5S)-2-(cyclopropanecarbonylamino)-5-[3-[[5-(difluoromethyl)-2-methyl-pyrazol-3-yl]amino]-1,2,4-triazol-4-yl]-N-[(3-fluorocyclobutyl)methyl]-4,5,6,7-tetrahydrobenzothiophene-3-carboxamide] | < 1000
Cn1nc(C(F)F)cc1Nc1nncn1[C@H]1CCc2sc(NC(=O)C3CC3)c(C(=O)NCC3CC3(F)F)c2C1 (mixture of isomers) [Example 381, (5S)-2-(cyclopropanecarbonylamino)-N-[(2,2-difluorocyclopropyl)methyl]-5-[3-[[5-(difluoromethyl)-2-methylpyrazol-3-yl]amino]-1,2,4-triazol-4-yl]-4,5,6,7-tetrahydro-1-benzothiophene-3-carboxamide] | < 1000
Cn1nc(C(F)(F)F)cc1Nc1nncn1[C@H]1CCc2sc(NC(=O)[C@H]3C[C@H]3F)c(C(=O)NC[C@H]3CC3(F)F)c2C1 (single isomer, unassigned) [Example 397] | < 1000
Nc1c(C(=O)N2CC[C@@H](O)C2)ncn1[C@H]1CCc2sc(NC(=O)C3CC3)c(C(=O)NCC3CC3)c2C1 [Example 260, (5S)-5-[5-amino-4-[(3R)-3-hydroxypyrrolidine-1-carbonyl]imidazol-1-yl]-2-(cyclopropanecarbonylamino)-N-(cyclopropylmethyl)-4,5,6,7-tetrahydrobenzothiophene-3-carboxamide] | < 1000
Cn1nc(C(F)F)cc1Nc1nncn1[C@H]1CCc2sc(NC(=O)[C@H]3C[C@H](F)C3)c(C(=O)N[C@H]3CC34CC4)c2C1 (single isomer, unassigned) [Example 470] | < 1000
Cn1nc(C(F)F)cc1Nc1nncn1[C@H]1CCc2sc(NC(=O)[C@@H]3C[C@@H]3F)c(C(=O)NCC3CC3)c2C1 (single isomer, unassigned) [Example 362] | < 1000
O=C(NCC1CC1)c1c(NC(=O)C2CC2)sc2c1C[C@@H](n1cnnc1N[C@H]1CCN(c3cnccn3)C1)CC2 [Example 241, (5S)-2-(cyclopropanecarbonylamino)-N-(cyclopropylmethyl)-5-[3-[[(3S)-1-pyrazin-2-ylpyrrolidin-3-yl]amino]-1,2,4-triazol-4-yl]-4,5,6,7-tetrahydrobenzothiophene-3-carboxamide] | < 1000
Cn1nc(C(F)F)cc1Nc1nncn1[C@H]1CCc2sc(NC(=O)[C@H]3C[C@@H](F)C3)c(C(=O)NC[C@H]3C[C@H](F)C3)c2C1 (single isomer, unassigned) [Example 475] | < 1000
Cn1nc(C(F)F)cc1Nc1nncn1[C@H]1CCc2sc(NC(=O)C3CC3(F)F)c(C(=O)NCC3CC3(F)F)c2C1 (single isomer, unassigned) [Example 282] | < 1000
Cn1nc(OC(F)F)cc1Nc1nncn1[C@H]1CCc2sc(NC(=O)[C@H]3C[C@H](F)C3)c(C(=O)NC[C@@H]3C[C@@H]3F)c2C1 [Example 481, (5S)-5-[3-[[5-(difluoromethoxy)-2-methylpyrazol-3-yl]amino]-1,2,4-triazol-4-yl]-2-[trans-(3-fluorocyclobutanecarbonyl)amino]-N-[[(1S,2S)-2-fluorocyclopropyl]methyl]-4,5,6,7-tetrahydro-1-benzothiophene-3-carboxamide] | < 1000
Cc1cc(Nc2nncn2[C@H]2CCc3sc(NC(=O)[C@H]4CC45CC5)c(C(=O)NCC4CC4)c3C2)n(C)n1 (relative stereo) [Example 500, (5S)—N-(cyclopropylmethyl)-5-[3-[(2,5-dimethylpyrazol-3-yl)amino]-1,2,4-triazol-4-yl]-2-[[(2S*)-spiro[2.2]pentane-2-carbonyl]amino]-4,5,6,7-tetrahydrobenzothiophene-3-carboxamide (* or R)] | < 1000
Cn1nc(C(F)F)cc1Nc1nncn1[C@H]1CCc2sc(NC(=O)C3CC3)c(C(=O)NC3CC34CC4)c2C1 (mixture of isomers) [Example 494, (5S)-2-cyclopropaneamido-5-(3-{[3-(difluoromethyl)-1-methyl-1H-pyrazol-5-yl]amino}-4H-1,2,4-triazol-4-yl)-N-{spiro[2.2]pentan-1-yl}-4,5,6,7-tetrahydro-1-benzothiophene-3-carboxamide] | < 1000
